According to patent US11407768B2, “AMPK activators” (Kallyope, Inc., priority 2020, dated 2022):

Biological target: Recombinant AMPK α1/β1/γ1 complex (Homo sapiens (Human), UniProt Q13131+Q9Y478)
Experiment: In vitro pAMPK1 kinase activation assay (ADP-Glo, SAMS peptide)
Assay type: biochemical
Details: AMPK α1/β1/γ1 pre-activated with CAMKK2; 12-point curve; 15 min compound incubation
Protocol: Compound effect on AMPK enzyme activation was determined in a cell-free format with a 12-point concentration curve. The ADP-Glo detection system was used to determine phosphorylation of a SAMS peptide substrate. Recombinant AMPK α1/β1/γ1 complex was pre-activated by phosphorylation with CAMKK2 followed by incubated with compound for 15 minutes prior to the SAMS phosphorylation reaction. Activity curves and EC50 values were fitted by interpolation to an ATP:ADP standard curve as indicated by the ADP-Glo manufacturer using Prism software.

Recombinant AMPK α1/β1/γ1 complex, sequence (Q13131 whole entry): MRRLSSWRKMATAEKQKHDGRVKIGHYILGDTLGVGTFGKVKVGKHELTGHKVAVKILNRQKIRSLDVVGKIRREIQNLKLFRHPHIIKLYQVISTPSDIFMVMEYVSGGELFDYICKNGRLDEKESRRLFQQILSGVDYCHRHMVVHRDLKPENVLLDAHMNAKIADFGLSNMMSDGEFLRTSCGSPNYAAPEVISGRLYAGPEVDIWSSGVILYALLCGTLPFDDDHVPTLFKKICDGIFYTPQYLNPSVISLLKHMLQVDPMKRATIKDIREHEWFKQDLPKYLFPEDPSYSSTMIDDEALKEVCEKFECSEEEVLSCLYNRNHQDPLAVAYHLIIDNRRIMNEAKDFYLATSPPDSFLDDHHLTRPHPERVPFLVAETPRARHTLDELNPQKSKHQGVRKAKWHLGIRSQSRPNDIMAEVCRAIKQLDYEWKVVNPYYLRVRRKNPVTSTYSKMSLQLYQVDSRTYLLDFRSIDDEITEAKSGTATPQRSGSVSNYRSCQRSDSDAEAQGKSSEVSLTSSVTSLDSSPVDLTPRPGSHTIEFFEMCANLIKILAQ
Recombinant AMPK α1/β1/γ1 complex, sequence (Q9Y478 whole entry): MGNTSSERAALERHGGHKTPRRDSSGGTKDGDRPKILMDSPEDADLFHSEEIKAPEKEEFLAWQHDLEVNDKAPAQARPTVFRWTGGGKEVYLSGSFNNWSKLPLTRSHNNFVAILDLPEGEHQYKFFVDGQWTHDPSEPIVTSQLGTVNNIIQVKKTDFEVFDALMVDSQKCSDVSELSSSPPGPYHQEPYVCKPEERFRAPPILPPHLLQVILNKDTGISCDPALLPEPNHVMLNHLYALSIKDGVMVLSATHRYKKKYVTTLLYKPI
Recombinant AMPK α1/β1/γ1 complex, sequence (P54619 whole entry partner): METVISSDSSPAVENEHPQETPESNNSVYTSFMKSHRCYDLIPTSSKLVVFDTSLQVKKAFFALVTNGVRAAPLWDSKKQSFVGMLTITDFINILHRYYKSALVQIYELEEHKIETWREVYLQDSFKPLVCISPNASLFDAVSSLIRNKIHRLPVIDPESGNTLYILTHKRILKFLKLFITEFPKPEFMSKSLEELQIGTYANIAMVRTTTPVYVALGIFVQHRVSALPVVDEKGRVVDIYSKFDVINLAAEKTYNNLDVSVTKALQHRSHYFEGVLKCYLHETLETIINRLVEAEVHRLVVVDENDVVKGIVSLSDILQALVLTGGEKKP

Compound	EC50 [nM]
O=C(NCCCP(=O)(O)O)c1ccc(-c2ccc(-c3nc4nc(O[C@@H]5CO[C@H]6[C@@H]5OC[C@H]6O)[nH]c4cc3Cl)cc2)cc1 [Compound 14, (3-(4′-(6-chloro-2-(((3R,3aR,6R,6aR)-6-hydroxyhexahydrofuro[3,2-b]furan-3-yl)oxy)-1H-imidazo[4,5-b]pyridin-5-yl)-[1,1′-biphenyl]-4-carboxamido)propyl)phosphonic acid]	0.5
OCC(CO)(CO)NCc1ccc(-c2ccc(-c3nc4nc(O[C@@H]5CO[C@H]6[C@@H]5OC[C@H]6O)[nH]c4cc3Cl)cc2)cc1 [Compound 53, 2-(((4′-(6-chloro-2-(((3R,3aR,6R,6aR)-6-hydroxyhexahydrofuro[3,2-b]furan-3-yl)oxy)-1H-imidazo[4,5-b]pyridin-5-yl)-[1,1′-biphenyl]-4-yl)methyl)amino)-2-(hydroxymethyl)propane-1,3-diol]	0.23
O=C(CCCNCc1ccc(-c2ccc(-c3cc4nc(O[C@@H]5CO[C@H]6[C@@H]5OC[C@H]6O)[nH]c4cc3Cl)cc2)cc1)NC(CO)CO [Compound 38, 4-(((4′-(6-chloro-2-(((3R,3aR,6R,6aR)-6-hydroxyhexahydrofuro[3,2-b]furan-3-yl)oxy)-1H-benzo[d]imidazol-5-yl)-[1,1′-biphenyl]-4-yl)methyl)amino)-N-(1,3-dihydroxypropan-2-yl)butanamide]	2.4
OCCN1CCN(Cc2ccc(-c3ccc(-c4nc5nc(O[C@@H]6CO[C@H]7[C@@H]6OC[C@H]7O)[nH]c5cc4Cl)cc3)cc2)CC1 [Compound 51, (3R,3aR,6R,6aR)-6-((6-chloro-5-(4′-((4-(2-hydroxyethyl)piperazin-1-yl)methyl)-[1,1′-biphenyl]-4-yl)-1H-imidazo[4,5-b]pyridin-2-yl)oxy)hexahydrofuro[3,2-b]furan-3-ol]	0.72
O=C(NC[C@H](O)[C@@H](O)[C@H](O)[C@H](O)CO)c1ccc(-c2ccc(-c3cc4nc(O[C@@H]5CO[C@H]6[C@@H]5OC[C@H]6O)[nH]c4cc3Cl)cc2)cc1 [Compound 30, 4′-(6-chloro-2-(((3R,3aR,6R,6aR)-6-hydroxyhexahydrofuro[3,2-b]furan-3-yl)oxy)-1H-benzo[d]imidazol-5-yl)-N-((2S,3R,4R,5R)-2,3,4,5,6-pentahydroxyhexyl)-[1,1′-biphenyl]-4-carboxamide]	0.65
O[C@@H]1CO[C@H]2[C@@H]1OC[C@H]2Oc1nc2cc(-c3ccc(-c4ccc(CN5C[C@H](O)[C@@H](O)C5)cc4)cc3)c(Cl)cc2[nH]1 [Compound 64]	1.4
O=S(=O)(O)c1ccc(-c2ccc(-c3nc4nc(O[C@@H]5CO[C@H]6[C@@H]5OC[C@H]6O)[nH]c4cc3Cl)cc2)cc1 [Compound 69, 4′-(6-chloro-2-(((3R,3aR,6R,6aR)-6-hydroxyhexahydrofuro[3,2-b]furan-3-yl)oxy)-1H-imidazo[4,5-b]pyridin-5-yl)-[1,1′-biphenyl]-4-sulfonic acid]	1.84
OCC1CN(Cc2ccc(-c3ccc(-c4cc5nc(O[C@@H]6CO[C@H]7[C@@H]6OC[C@H]7O)[nH]c5cc4Cl)cc3)cc2)C1 [Compound 63, (3R,3aR,6R,6aR)-6-((6-chloro-5-(4′((3-(hydroxymethyl)azetidin-1-yl)methyl)-[1,1′-biphenyl]-4-yl)-1H-benzo[d]imidazol-2-yl)oxy)hexahydrofuro[3,2-b]furan-3-ol]	1.09
NCC1CN(Cc2ccc(-c3ccc(-c4cc5nc(O[C@@H]6CO[C@H]7[C@@H]6OC[C@H]7O)[nH]c5cc4Cl)cc3)cc2)C1 [Compound 67, (3R,3aR,6R,6aR)-6-((5-(4′-((3-(aminomethyl)azetidin-1-yl)methyl)-[1,1′-biphenyl]-4-yl)-6-chloro-1H-benzo[d]imidazol-2-yl)oxy)hexahydrofuro[3,2-b]furan-3-ol]	0.93
OCC1(CO)CN(Cc2ccc(-c3ccc(-c4nc5nc(O[C@@H]6CO[C@H]7[C@@H]6OC[C@H]7O)[nH]c5cc4Cl)cc3)cc2)C1 [Compound 52, (1-((4′-(6-chloro-2-(((3R,3aR,6R,6aR)-6-hydroxyhexahydrofuro[3,2-b]furan-3-yl)oxy)-1H-imidazo[4,5-b]pyridin-5-yl)-[1,1′-biphenyl]-4-yl)methyl)azetidine-3,3-diyl)dimethanol]	0.81
CN(CCS(=O)(=O)O)C(=O)c1ccc(-c2ccc(-c3nc4nc(O[C@@H]5CO[C@H]6[C@@H]5OC[C@H]6O)[nH]c4cc3Cl)cc2)cc1 [Compound 8, 2-(4′-(6-chloro-2-(((3R,3aR,6R,6aR)-6-hydroxyhexahydrofuro[3,2-b]furan-3-yl)oxy)-1H-imidazo[4,5-b]pyridin-5-yl)-N-methyl-[1,1′-biphenyl]4-carboxamido)ethane-1-sulfonic acid]	1.78
O=C(CCCNCc1ccc(-c2ccc(-c3cc4nc(O[C@@H]5CO[C@H]6[C@@H]5OC[C@H]6O)[nH]c4cc3Cl)cc2)cc1)NCCO [Compound 37, 4-(((4′-(6-chloro-2-(((3R,3aR,6R,6aR)-6-hydroxyhexahydrofuro[3,2-b]furan-3-yl)oxy)-1H-benzo[d]imidazol-5-yl)-[1,1′-biphenyl]-4-yl)methyl)amino)-N-(2-hydroxyethyl)butanamide]	3.6
O=P(O)(O)c1ccc(-c2ccc(-c3nc4nc(O[C@H]5CO[C@H](CO)[C@@H](O)C5)[nH]c4cc3Cl)cc2)cc1 [Compound 12, (4′-(6-chloro-2-(((3R,5S,6R)-5-hydroxy-6-(hydroxymethyl)tetrahydro-2H-pyran-3-yl)oxy)-1H-imidazo[4,5b]pyridin-5-yl)-[1,1′-biphenyl]-4-yl)phosphonic acid]	152
O=P(O)(O)c1ccc(-c2ccc(-c3nc4nc(O[C@H]5CO[C@H](CO)[C@H]5O)[nH]c4cc3Cl)cc2)cc1 [Compound 45, (4′-(6-chloro-2-(((3S,4R,5R)-4-hydroxy-5-(hydroxymethyl)tetrahydrofuran-3-yl)oxy)-1H-imidazo[4,5-b]pyridin-5-yl)-[1,1′-biphenyl]-4-yl)phosphonic acid]	> 10000
O=C(O)C(O)CNCc1ccc(-c2ccc(-c3nc4nc(O[C@@H]5CO[C@H]6[C@@H]5OC[C@H]6O)[nH]c4cc3Cl)cc2)cc1 (stereo partly drawn) [Compound 22, 3-(((4′-(6-chloro-2-(((3R,3aR,6R,6aR)-6-hydroxyhexahydrofuro[3,2-b]furan-3-yl)oxy)-1H-imidazo[4,5-b]pyridin-5-yl)-[1,1′-biphenyl]-4-yl)methyl)amino)-2-hydroxypropanoic acid]	0.63
OCCOCC1CN(Cc2ccc(-c3ccc(-c4cc5nc(O[C@@H]6CO[C@H]7[C@@H]6OC[C@H]7O)[nH]c5cc4Cl)cc3)cc2)C1 [Compound 50]	1.46
CN(CCOCCO)C(=O)c1ccc(-c2ccc(-c3cc4nc(O[C@@H]5CO[C@H]6[C@@H]5OC[C@H]6O)[nH]c4cc3Cl)cc2)cc1 [Compound 48, 4′-(6-chloro-2-(((3R,3aR,6R,6aR)-6-hydroxyhexahydrofuro[3,2-b]furan-3-yl)oxy)-1H-benzo [d]imidazol-5-yl)-N-(2-(2-hydroxyethoxy)ethyl)-N-methyl-[1,1′-biphenyl]-4-carboxamide]	1.16
C[N+](C)(C)CCNC(=O)c1ccc(-c2ccc(-c3cc4nc(O[C@@H]5CO[C@H]6[C@@H]5OC[C@H]6O)[nH]c4cc3Cl)cc2)cc1 [Compound 29, 2-(4′-(6-chloro-2-(((3R,3aR,6R,6aR)-6-hydroxyhexahydrofuro[3,2-b]furan-3-yl)oxy)-1H-benzo [d]imidazol-5-yl)-[1,1′-biphenyl]-4-carboxamido)-N,N,N-trimethylethan-1-aminium bicarbonate]	0.56
OCC1(CO)CCN(Cc2ccc(-c3ccc(-c4nc5nc(O[C@@H]6CO[C@H]7[C@@H]6OC[C@H]7O)[nH]c5cc4Cl)cc3)cc2)CC1 [Compound 54, (1((4′-(6-chloro-2-(((3R,3aR,6R,6aR)-6-hydroxyhexahydrofuro[3,2-b]furan-3-yl)oxy)-1H-imidazo[4,5-b]pyridin-5-yl)-[1,1′-biphenyl]-4-yl)methyl)piperidine-4,4-diyl)dimethanol]	0.57
CN(CCOCCO)S(=O)(=O)c1ccc(-c2ccc(-c3cc4nc(O[C@@H]5CO[C@H]6[C@@H]5OC[C@H]6O)[nH]c4cc3Cl)cc2)cc1 [Compound 72]	1.38
O=C(NCCOCCO)c1ccc(-c2ccc(-c3cc4nc(O[C@@H]5CO[C@H]6[C@@H]5OC[C@H]6O)[nH]c4cc3Cl)cc2)c(O)c1 [Compound 75, 4′-(6-chloro-2-(((3R,3aR,6R,6aR)-6-hydroxyhexahydrofuro[3,2-b]furan-3-yl)oxy)-1H-benzo[d]imidazol-5-yl)-2-hydroxy-N-(2-(2-hydroxyethoxy)ethyl)-[1,1′-biphenyl]-4-carboxamide]	0.37
O=P(O)(O)c1ccc(-c2ccc(-c3nc4nc(O[C@@H]5CO[C@@H](CO)[C@@H]5O)[nH]c4cc3Cl)cc2)cc1 [Compound 68, (4′-(6-chloro-2-(((3R,4S,5S)-4-hydroxy-5-(hydroxymethyl)tetrahydrofuran-3-yl)oxy)-1H-imidazo[4,5-b]pyridin-5-yl)-[1,1′-biphenyl]-4-yl)phosphonic acid]	> 10000
O[C@@H]1CCN(Cc2ccc(-c3ccc(-c4cc5nc(O[C@@H]6CO[C@H]7[C@@H]6OC[C@H]7O)[nH]c5cc4Cl)cc3)cc2)C1 [Compound 59, (R)-1-((4′-(6-chloro-2-(((3R,3aR,6R,6aR)-6-hydroxyhexahydrofuro[3,2-b]furan-3-yl)oxy)-1H-benzo[d]imidazol-5-yl)-[1,1′-biphenyl]-4-yl)methyl)pyrrolidin-3-ol]	1.04
OCC1(CO)CN(Cc2ccc(-c3ccc(-c4cc5nc(O[C@@H]6CO[C@H]7[C@@H]6OC[C@H]7O)[nH]c5cc4Cl)cc3)cc2)C1 [Compound 66, (1-((4′-(6-chloro-2-(((3R,3aR,6R,6aR)-6-hydroxyhexahydrofuro[3,2-b]furan-3-yl)oxy)-1H-benzo[d]imidazol-5-yl)-[1,1′-biphenyl]-4-yl)methyl)azetidine-3,3-diyl)dimethanol]	0.8
